Values quoted from earlier work in US8518371B2, “Hypoxia-selective, weakly basic 2-nitroimidazole delivery agents and methods of use thereof” (Natural Pharmacia International, Inc., priority 2006, dated 2013).

Experiments:
[1] = in vivo
animal models = conditions: in vivo
[2] = escalating, rarely to

retention times in tissues [1] | Compound | selectivity for tumor cells (tumor cells) | safety and efficacy in animal models (animal models) | MTD [2] [mg/m^2]
low | N[C@@H](Cc1ccc(B(O)O)cc1)C(=O)O [BPA, L-4-dihydroxy-borylphenylalanine] | moderate | safe and efficacious | 
 | CC[C@]1(O)C[C@@H]2CN(CCc3c([nH]c4ccccc34)[C@@](C(=O)OC)(c3cc4c(cc3OC)N(C)[C@H]3[C@@](O)(C(=O)OC)[C@H](OC(C)=O)[C@]5(CC)C=CCN6CC[C@]43[C@@H]65)C2)C1 [vinblastine] |  |  | ≤ 18.5
low | disodium mercapto-closo-dodecaborate [BSH] | moderate | safe and efficacious | 
